Consider 12 compounds from ChEMBL document CHEMBL1201862, “PubChem BioAssay data set” (2004).

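Grown in 96-well plates, cells were treated for 48 hours with each compound at five concentrations. Insufficient inhibition: endpoint recorded as highest concentration tested. GI50 marks 50% less growth.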 Calls of active or inactive are those of the source. Rule as the data show it: active = GI50 up to about 1.1 µM and inactive = higher. Peptide text beside a SMILES is read from it. * marks the point of attachment. Cbz = O=C(OCc1ccccc1)*; NHNH2 = NN*

Among the test systems are A498; T47D; SF-268; K562; MOLT-4; MCF7; CCRF-CEM; Malme-3M; OVCAR-8; SK-MEL-2; SF-539; ACHN; BT-549; UO-31; HCT-15; SK-OV-3; HT-29; HCC 2998; NCI-H226.
What all share (test): inhibition of tumour cell growth, NCI panel, 48 h

Turning to `COc1ccc(C(=O)/C=C2\c3ccccc3C(=O)N2C)cc1`, the GI50 was 69 µM (inactive) with A498; 27 µM (inactive) in the assay on T47D; 61.2 µM (inactive) in the assay on SF-268; 44.1 µM (inactive) with K562; 58.7 µM (inactive) in the assay with MOLT-4; 21 µM (inactive) in the assay with MCF7. Moreover, the GI50 is 44.8 µM (inactive) in the assay with CCRF-CEM; 31.7 µM (inactive) in the assay on Malme-3M; 64.4 µM (inactive) in the assay on OVCAR-8; > 100 µM (inactive) with SK-MEL-2; 64 µM (inactive) with SF-539; 89.5 µM (inactive) in the assay on ACHN. The GI50 in the assay on BT-549 is 68.1 µM (inactive); with UO-31 it was 44.3 µM (inactive); in the assay on HCT-15, 36.4 µM; in the assay on SK-OV-3, 74.8 µM (inactive); in the assay with HT-29, 35.6 µM (inactive).
As for `COC(=O)[C@@H]1C[C@H]2[C@H](c3ccccc3Br)[C@@H](OC(C)=O)[C@@H](OCc3ccccc3)ON2O1`, the GI50 in the assay with T47D is > 100 µM (inactive); with SF-268 it was > 100 µM (inactive); with K562, > 100 µM (inactive); in the assay with MOLT-4, 45.3 µM (inactive); in the assay on MCF7, > 100 µM (inactive); in the assay on CCRF-CEM, 49.4 µM (inactive). The GI50 with OVCAR-8 is > 100 µM (inactive); in the assay on SK-MEL-2, 69.2 µM (inactive); in the assay with SF-539, > 100 µM (inactive); in the assay with ACHN, > 100 µM (inactive); in the assay on BT-549, > 100 µM (inactive); in the assay with UO-31, > 100 µM (inactive). In addition, the GI50 is over 100 µM with HCT-15, > 100 µM (inactive) with SK-OV-3, 51.9 µM (inactive) in the assay with HCC 2998 and > 100 µM (inactive) with HT-29.
On to `Cn1c(=O)c2[nH]c(/N=N\n3ccc4ccccc43)nc2n(C)c1=O`, for which the GI50 in the assay on A498, in the assay on T47D, with SF-268, in the assay on K562, in the assay on MOLT-4 and in the assay with CCRF-CEM was > 100 µM (inactive) in each case. The GI50 in the assay with Malme-3M, in the assay on OVCAR-8, in the assay with SF-539, with NCI-H226, with ACHN and in the assay with BT-549 was > 100 µM (inactive) in each case. Besides, the GI50 in the assay on UO-31 is > 100 µM (inactive); in the assay with HCT-15 it was over 100 µM; in the assay on SK-OV-3 it was > 100 µM (inactive); in the assay with HCC 2998, > 100 µM (inactive); in the assay on HT-29, > 100 µM (inactive).
For `CCN(CC)c1nc(N(C)C)c2ccccc2n1`, the GI50 was 22.9 µM (inactive) with T47D; 52.2 µM (inactive) with SF-268; 10.6 µM (inactive) in the assay on K562; 7.66 µM (inactive) with MOLT-4; 29.2 µM (inactive) in the assay on MCF7; 41.1 µM (inactive) in the assay on Malme-3M. The GI50 with OVCAR-8 was 31 µM (inactive); with SK-MEL-2, 30.1 µM (inactive); with SF-539, 24.3 µM (inactive); in the assay on NCI-H226 it was 15.9 µM (inactive); in the assay with ACHN, 27.9 µM (inactive); in the assay with BT-549, 48.1 µM (inactive). Also, the GI50 in the assay with UO-31 was 19.3 µM (inactive); in the assay on HCT-15, 33.3 µM; in the assay on SK-OV-3, 38.8 µM (inactive); in the assay with HCC 2998, 15.3 µM (inactive); in the assay with HT-29, 11.6 µM (inactive).
On to `COc1ccc(-c2cc(-c3ccco3)c(C#N)c(=S)n2C2OC(COC(C)=O)C(OC(C)=O)C(OC(C)=O)C2OC(C)=O)cc1` (configuration not stated), for which the GI50 in the assay with T47D is 5.24 µM (inactive); in the assay with SF-268, 8.45 µM (inactive); with K562, 2.43 µM (inactive); in the assay on MOLT-4, 12.3 µM (inactive); in the assay with MCF7, 23.6 µM (inactive); with Malme-3M, 5.18 µM (inactive). For the same compound, the GI50 with OVCAR-8 was 3.78 µM (inactive); in the assay on SF-539, 1.85 µM (inactive); in the assay with NCI-H226 it was 5.7 µM (inactive); in the assay on ACHN it was 6.82 µM (inactive); in the assay with BT-549, 2.82 µM (inactive); in the assay with UO-31, 13.7 µM (inactive). In addition, the GI50 with HCT-15 was 31.6 µM; with SK-OV-3, 13.8 µM (inactive); with HCC 2998, 14.9 µM (inactive); in the assay with HT-29, 3.24 µM (inactive).
In the case of `Cc1cc(C)nc(NS(=O)(=O)c2ccc(NN=c3c4ccccc4n(C)c4ccccc34)cc2)n1`, the GI50 in the assay with T47D was 13.9 µM (inactive); in the assay with SF-268, 25.6 µM (inactive); in the assay on K562 it was 16.7 µM (inactive); with MOLT-4 it was 15.5 µM (inactive); in the assay on MCF7 it was 17.3 µM (inactive); with CCRF-CEM it was 15.7 µM (inactive). In addition, the GI50 is 35.6 µM (inactive) with Malme-3M; 30.1 µM (inactive) with OVCAR-8; 15.1 µM (inactive) with SK-MEL-2; 44.4 µM (inactive) in the assay on SF-539; 40.2 µM (inactive) in the assay with NCI-H226; 21.6 µM (inactive) in the assay on ACHN. Moreover, the GI50 in the assay with BT-549 is 8.95 µM (inactive); in the assay with UO-31, 16.6 µM (inactive); in the assay with HCT-15, 32.7 µM; in the assay on SK-OV-3 it was 27.2 µM (inactive); in the assay on HCC 2998, 28.3 µM (inactive); in the assay on HT-29, 33.3 µM (inactive).
Turning to `NN/C(=N\S(=O)(=O)c1ccc(-c2ccccn2)s1)Nc1ccc(Cl)cc1`, the GI50 in the assay on A498 is > 100 µM (inactive); with T47D it was 38.1 µM (inactive); in the assay on SF-268, 22.1 µM (inactive); with K562, > 100 µM (inactive); with MOLT-4, 32.7 µM (inactive); with MCF7 it was > 100 µM (inactive). The GI50 in the assay with OVCAR-8 is 83.6 µM (inactive); in the assay with SK-MEL-2 it was > 100 µM (inactive); in the assay on SF-539, 38.9 µM (inactive); in the assay with NCI-H226 it was 75.2 µM (inactive); in the assay with ACHN, > 100 µM (inactive); in the assay with BT-549 it was > 100 µM (inactive). Further, the GI50 in the assay with UO-31 was 43.9 µM (inactive); in the assay with HCT-15, over 100 µM; with SK-OV-3, 88.9 µM (inactive); in the assay with HT-29 it was > 100 µM (inactive).
As to `COC(=O)CC(NC(=O)OCc1ccccc1)C(=O)NC(CC(=O)OC)C(=O)NC(CC(=O)OC)C(=O)NC(CC(=O)OC)C(=O)NC(CC(=O)OC)C(=O)NC(CC(=O)OC)C(=O)NN` (configuration not stated) (Cbz-D(OMe)D(OMe)D(OMe)D(OMe)D(OMe)D(OMe)-NHNH2; configuration not given here), the GI50 in the assay on T47D, in the assay on SF-268, with K562, in the assay on MOLT-4, in the assay with MCF7 and with CCRF-CEM was > 100 µM (inactive) throughout. The GI50 in the assay with OVCAR-8, with SK-MEL-2, in the assay with SF-539, in the assay on ACHN, in the assay on BT-549 and in the assay on UO-31 was > 100 µM (inactive) each time. The GI50 in the assay with HCT-15 was over 100 µM; with SK-OV-3 it was > 100 µM (inactive); in the assay with HCC 2998, > 100 µM (inactive); with HT-29, > 100 µM (inactive).
As for `O=C1NC(N2CCCCC2)=N/C1=C\c1cccs1`, the GI50 with T47D, in the assay with SF-268, with MOLT-4, in the assay on MCF7, in the assay with CCRF-CEM and with Malme-3M was > 100 µM (inactive) each time. Besides, the GI50 with OVCAR-8, with SK-MEL-2, in the assay on SF-539, in the assay on NCI-H226, in the assay on ACHN and in the assay with BT-549 was > 100 µM (inactive) throughout. In addition, the GI50 in the assay on UO-31 was > 100 µM (inactive); with HCT-15 it was over 100 µM; with SK-OV-3, > 100 µM (inactive); with HCC 2998 it was > 100 µM (inactive); with HT-29 it was > 100 µM (inactive).
In the case of `Cn1c(=O)c2nc(CCCCC(=O)O)[nH]c2n(C)c1=O`, the GI50 with A498, in the assay with T47D, with SF-268, with MOLT-4, with CCRF-CEM and in the assay with Malme-3M was > 100 µM (inactive) in each case. The GI50 in the assay with OVCAR-8, in the assay with SK-MEL-2, with NCI-H226, with ACHN, with BT-549 and in the assay with UO-31 was > 100 µM (inactive) throughout. Further, the GI50 with HCT-15 was over 100 µM; in the assay with HCC 2998 it was > 100 µM (inactive); in the assay on HT-29, > 100 µM (inactive).
As for `Cc1ccc(S(=O)(=O)NC(=O)NCCC(=O)O)cc1`, the GI50 in the assay on T47D, in the assay with SF-268, with K562, with MOLT-4, in the assay with MCF7 and with CCRF-CEM was > 100 µM (inactive) in each case. Further, the GI50 with Malme-3M is > 100 µM (inactive); in the assay on OVCAR-8, > 100 µM (inactive); in the assay on SK-MEL-2, > 100 µM (inactive); in the assay on SF-539, > 100 µM (inactive); in the assay on ACHN it was > 100 µM (inactive); with BT-549 it was 25.8 µM (inactive). Moreover, the GI50 with UO-31 is > 100 µM (inactive); in the assay on HCT-15, 21.4 µM; with SK-OV-3, > 100 µM (inactive); with HT-29, > 100 µM (inactive).
Take `COc1cc(C2C(Cl)C(=O)N2c2c(C)n(C)n(-c3ccccc3)c2=O)ccc1O` (configuration not stated): the GI50 was 44.3 µM (inactive) with T47D; 24.9 µM (inactive) in the assay with SF-268; 26.6 µM (inactive) in the assay with K562; 15.1 µM (inactive) in the assay on MOLT-4; 13.2 µM (inactive) in the assay on MCF7; 22.7 µM (inactive) with CCRF-CEM. The GI50 in the assay with Malme-3M is 28.3 µM (inactive); with OVCAR-8 it was 19.4 µM (inactive); in the assay on SK-MEL-2 it was 20.3 µM (inactive); in the assay with SF-539 it was 16.3 µM (inactive); in the assay on NCI-H226 it was 22.3 µM (inactive); in the assay with ACHN it was 20.1 µM (inactive). Also, the GI50 in the assay on BT-549 is 20.1 µM (inactive); with UO-31, 16.9 µM (inactive); in the assay with SK-OV-3 it was 29.6 µM (inactive); with HT-29, 17.7 µM (inactive).
